# Results as given in US11535630B2, “Apelin receptor (APJ) agonists and uses thereof” (Research Triangle Institute, priority 2015, dated 2022).
# Molecular target: T1, apelin receptor (APJ) (Homo sapiens, UniProt P35414)
# T1 sequence (P35414 1-380): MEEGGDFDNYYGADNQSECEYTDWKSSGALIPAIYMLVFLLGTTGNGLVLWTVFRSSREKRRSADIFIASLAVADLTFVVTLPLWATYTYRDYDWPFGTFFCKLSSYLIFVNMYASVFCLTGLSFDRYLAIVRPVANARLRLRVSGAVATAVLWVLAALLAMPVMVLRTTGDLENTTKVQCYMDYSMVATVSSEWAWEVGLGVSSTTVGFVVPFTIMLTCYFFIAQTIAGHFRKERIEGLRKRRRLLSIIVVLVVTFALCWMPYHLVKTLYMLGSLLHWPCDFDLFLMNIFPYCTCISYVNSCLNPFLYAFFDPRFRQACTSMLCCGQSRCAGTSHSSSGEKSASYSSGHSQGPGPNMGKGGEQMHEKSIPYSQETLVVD
# Experiment: In vitro apelin agonist activity (methods of Giddings et al., Apelin-13 as positive control)
# Type: cell-based
# Conditions: in vitro apelin agonist activity, methods of Giddings et al., Apelin-13 as positive control; read-out: EC50 (nM) Ave
# From the text: Characterization of the Apelin Agonist Activity of the Compounds
# 1:39-47, the contents of which are hereby incorporated by reference in its entirety. Using the methods described in Giddings et al. and Apelin-13 as a positive control.
row,EC50 [nM],SMILES
1,128,"O=C(O)C[C@H](CCN1CC(C(F)(F)F)C1)NC(=O)c1cc(-c2ccccc2C(F)(F)F)n(C2CCCC2)n1 [compound 601, (3S)-3-({1-cyclopentyl-5-[2-(trifluoromethyl)phenyl]-1H-pyrazol-3-yl]formamido)-543-(trifluoromethypazetidin-1-yl]pentanoic acid]"
2,167,"O=C(O)C[C@H](CCN1CCCC(F)(F)C1)NC(=O)c1cc(-c2ccccc2C(F)(F)F)n(C2CCC2)n1 [compound 552, (3S)-3-({1-cyclobutyl-5-[2-(trifluoromethyl)phenyl]-1H-pyrazol-3-yl}formamido)-5-(3,3-difluoropiperidin-1-yl)pentanoic acid]"
3,58,"Cc1cnc(NC(=O)C[C@H](CCN2CCC(F)(F)CC2)NC(=O)c2cc(-c3ccccc3C(F)(F)F)n(C3CCCC3)n2)s1 [compound 436, (3S)-3-({1-cyclopentyl-5-[2-(trifluoromethyl)phenyl]-1H-pyrazol-3-yl]formamido)-5-(4,4-difluoropiperidin-1-yl)-N-(5-methyl-1,3-thiazol-2-yl)pentanamide]"
4,11,"C[C@@H]1CC(F)(F)CN1CC[C@@H](CC(=O)O)NC(=O)c1cc(-c2ccccc2C(C)(F)F)n(C2CCCC2)n1 [compound 605, (3S)-3-({1-cyclopentyl-5-[2-(1,1-difluoroethyl)phenyl]-1H-pyrazol-3-yl]formamido)-5-[(2R)-4,4-difluoro-2-methylpyrrolidin-1-yl]pentanoic acid]"
5,10.3,"CN(CC[C@@H](CC(=O)NC1CCC1)NC(=O)c1cc(-c2ccccc2C(F)(F)F)n(C2CCCC2)n1)C1CCCC1 [compound 490, (3S)-N-cyclobutyl-5-[cyc1opentyl(methyl)amino]-3-({1-cyclopentyl-5-[2(trifluoromethyl)phenyl]-1H-pyrazol-3-yl}formamido)pentanamide]"
6,70,"CN(C(=O)C[C@H](CCN1CCCC(F)(F)C1)NC(=O)c1cc(-c2ccccc2Cl)n(C2CCCC2)n1)c1ncco1 [compound 452, (3S)-3-{[5-(2-chlorophenyl)-1-cyclopentyl-1H-pyrazol-3-yl]formamido}-5-(3,3-difluoropiperidin-1-yl)-N-methyl-N-(1,3-oxazol-2-yl)pentanamide]"
7,191,"NNC(=O)C[C@H](CCN1CCCC(F)(F)C1)NC(=O)c1cc(-c2ccccc2Cl)n(C2CCCC2)n1 [compound 465, 5-(2-chlorophenyl)-1-cyclopentyl-N-[(2S)-4-(3,3-difluoropiperidin-1-yl)-1-(hydrazinecarbonyl)butan-2-yl]-1H-pyrazole-3-carboxamide]"
8,2530,"COc1cccc(OC)c1-c1cc(C(=O)N[C@@H](CCN2CCCCC2)CC(=O)NC(C)(C)C)nn1C1CCCC1 [compound 333, (3S)-N-tert-butyl-3-{[1-cyclopentyl-5-(2,6-dimethoxyphenyl)-1H-pyrazol-3-yl]formamido}-5-(piperidin-1-yl)pentanamide]"
9,79,"Cc1cnn(CC[C@@H](CC(=O)N(C)c2nccs2)NC(=O)c2cc(-c3ccccc3C(F)(F)F)n(C3CCCC3)n2)c1 [compound 500, (3S)-3-({1-cyclopentyl-5-[2-(trifluoromethyl)phenyl]-1H-pyrazol-3-yl}formamido)-N-methyl-5-(4-methyl-1H-pyrazol-1-yl)-N-(1,3-thiazol-2-yl)pentanamide]"
10,> 10000,"COc1cccc(OC)c1-c1cc(C(=O)N[C@@H](CCN2CCCCC2)CC(=O)NC2CCC2)nn1C1CCCCC1C (stereo partly drawn) [compound 356, (3S)-N-cyclobutyl-3-{[5-(2,6-dimethoxyphenyl)-1-(2-methylcyclohexyl)-1H-pyrazol-3-yl]formamido}-5-(piperidin-1-yl)pentanamide]"
11,> 10000,"CCC(CC)n1nc(C(=O)N(CC)[C@@H](CCN2CCCCC2)CC(=O)NC2CCC2)cc1-c1c(OC)cccc1OC [compound 346, (3S)-N-cyclobutyl-3-{1-[5-(2,6-dimethoxyphenyl)-1-(pentan-3-yl)-1H-pyrazol-3-yl]-N-ethylformamido}-5-(piperidin-1-yl)pentanamide]"
12,> 10000,"COc1cccc(OC)c1-c1cc(C(=O)N[C@@H](CCN2CCOCC2)CC(=O)OC(C)(C)C)nn1C1CCCC1 [compound 303, tert-butyl (3S)-3-{[1-cyclopentyl-5-(2,6-dimethoxyphenyl)-1H-pyrazol-3-yl]formamido}-5-(morpholin-4-yl)pentanoate]"
13,69,"CC1CCC(F)(F)CN1CC[C@@H](CC(=O)O)NC(=O)c1cc(-c2ccccc2C(C)(F)F)n(C2CCCC2)n1 (stereo partly drawn) [compound 607, (3S)-3-({1-cyclopentyl-5-[2-(1,1-difluoroethyl)phenyl]-1H-pyrazol-3-yl}formamido)-5-(5,5-difluoro-2-methylpiperidin-1-yl)pentanoic acid]"
14,110,"O=C(O)C[C@H](CCN1CCC(F)(F)CC1)NC(=O)c1cc(-c2ccccc2C(F)(F)F)n(C2CCCC2)n1 [compound 424, (3S)-3-({1-cyclopentyl-5-[2-(trifluoromethyl)phenyl]-1H-pyrazol-3-yl}formamido)-5-(4,4-difluoropiperidin-1-yl)pentanoic acid]"
15,59,"O=C(C[C@H](CCN1CCCC1)NC(=O)c1cc(-c2ccccc2C(F)(F)F)n(C2CCCC2)n1)NC1CCC1 [compound 504, (3S)-N-cyclobutyl-3-({1-cyclopentyl-5-[2-(trifluoromethyl)phenyl]-1H-pyrazol-3-yl}formamido)-5-(pyrrolidin-1-yl)pentanamide]"
16,2190,"O=C(C[C@H](CCc1ccc(F)cc1)NC(=O)c1cc(-c2ccccc2C(F)(F)F)n(C2CCCC2)n1)NN1CCCC1 [compound 510, (3S)-3-({1-cyclopentyl-5-[2-(trifluoromethyl)phenyl]-1H-pyrazol-3-yl}formamido)-5-(4-fluorophenyl)-N-(pyrrolidin-1-yl)pentanamide]"
17,1570,"O=C(O)C[C@H](CCN1CCCC(F)(F)C1)NC(=O)c1cc(-c2ccc(Cl)cc2C(F)(F)F)n(C2CCCC2)n1 [compound 555, (3S)-3-({5-[4-chloro-2-(trifluoromethyl)phenyl]-1-cyclopentyl-1H-pyrazol-3-yl}formamido)-5-(3,3-difluoropiperidin-1-yl)pentanoic acid]"
18,24,"CC(C)CN(C)CC[C@@H](CC(=O)NC1CCC1)NC(=O)c1cc(-c2ccccc2C(F)(F)F)n(C2CCCC2)n1 [compound 493, (3S)-N-cyclobutyl-3-({1-cyclopentyl-5-[2-(trifluoromethyl)phenyl]-1H-pyrazol-3-yl}formamido)-5-[methyl(2-methylpropyl)amino]pentanamide]"
19,31,"COc1cccc(OC)c1-c1cc(C(=O)N[C@@H](CCN2CCCCC2)CC(=O)Nc2ncco2)nn1C1CCCC1 [compound 339, (3S)-3-{[1-cyclopentyl-5-(2,6-dimethoxyphenyl)-1H-pyrazol-3-yl]formamido}-N-(1,3-oxazol-2-yl)-5-(piperidin-1-yl)pentanamide]"
20,14,"C[C@@H](c1nnn[nH]1)[C@H](CCN1CC2C(C1)C2(F)F)NC(=O)c1cc(-c2ccccc2C(F)(F)F)n(C2CCCC2)n1 (stereo partly drawn) [compound 638, 1-cyclopentyl-N-[(3S,4R)-1-{6,6-difluoro-3-azabicyclo[3.1.0]hexan-3-yl}-4-(1H-1,2,3,4-tetrazol-5-yl)pentan-3-yl]-5-[2-(trifluoromethyl)phenyl]-1H-pyrazole-3-carboxamide]"
21,544,"O=C(O)C[C@H](CCNC(=O)C1CCCC1)NC(=O)c1cc(-c2ccccc2C(F)(F)F)n(C2CCCC2)n1 [compound 538, (3S)-3-({1-cyclopentyl-5-[2-(trifluoromethyl)phenyl]-1H-pyrazol-3-yl}formamido)-5-(cyclopentylformamido)pentanoic acid]"
22,> 10000,"CCC(CC)n1nc(C(=O)N[C@@H](CCC2CCCCC2)CC(=O)O)cc1-c1c(OC)cccc1OC [compound 649, (3S)-5-cyclohexyl-3-{[5-(2,6-dimethoxyphenyl)-1-(pentan-3-yl)-1H-pyrazol-3-yl]formamido}pentanoic acid]"
23,49,"O=C(C[C@H](CCN1CCCCC1)NC(=O)c1cc(-c2ccccc2C2CC2)n(C2CCCC2)n1)NC1CCC1 [compound 413, (3S)-N-cyclobutyl-3-{[1-cyclopentyl-5-(2-cyclopropylphenyl)-1H-pyrazol-3-yl]formamido}-5-(piperidin-1-yl)pentanamide]"
24,227,"CCc1ccccc1-c1cc(C(=O)N[C@@H](CCN2CCC(F)(F)CC2)CC(=O)O)nn1C1CCCC1 [compound 405, (3S)-3-{[1-cyclopentyl-5-(2-ethylphenyl)-1H-pyrazol-3-yl]formamido}-5-(4,4-difluoropiperidin-1-yl)pentanoic acid]"
25,79,"O=C(C[C@H](CC(=O)N1CCCCC1)NC(=O)c1cc(-c2ccccc2C(F)(F)F)n(C2CCCC2)n1)NC1CCC1 [compound 514, (3R)-N-cyclobutyl-3-({1-cyclopentyl-5-[2-(trifluoromethyl)phenyl]-1H-pyrazol-3-yl}formamido)-5-oxo-5-(piperidin-1-yl)pentanamide]"

row,SMILES,EC50 [nM]
1,"O=C(N[C@@H](CC1CCCCC1)C(=O)O)c1cc(-c2ccccc2C(F)(F)F)n(C2CCCC2)n1 [compound 577, (2S)-3-cyclohexyl-2-({1-cyclopentyl-5-[2-(trifluoromethyl)phenyl]-1H-pyrazol-3-yl}formamido)propanoic acid]",1030
2,"COc1cccc(OC)c1-c1cc(C(=O)N[C@@H](CC2CC2)C(=O)O)nn1C1CCCC1 [compound 385, (2S)-2-{[1-cyclopentyl-5-(2,6-dimethoxyphenyl)-1H-pyrazol-3-yl]formamido}-3-cyclopropylpropanoic acid]",> 10000
